Measured values published in patent US4920103A, “Modifications of mycinose and 3-O-demethylmycinose in tylosin-type macrolides” (Eli Lilly and Company, priority 1986, dated 1990).
Values after ≈ are worked out from the molar mass of the structure shown. Like-named read-outs stand apart in the source and are kept apart here.

How the values were obtained:
[1] = tested on: Staphylococcus aureus X1.1; experiment: MIC, standard agar-dilution assay, S. aureus X1.1; format: cell-based
Experimental: (§1) The MIC's in Table II were determined by standard agar-dilution assays. The MIC's in Table III were obtained using conventional broth-dilution microtiter tests.

[2] = tested on: Staphylococcus aureus V41; experiment: MIC, standard agar-dilution assay, S. aureus V41; format: cell-based; conditions: Staphylococcus aureus, V41
Experimental: as §1

[3] = tested on: Staphylococcus aureus X400; experiment: MIC, standard agar-dilution assay, S. aureus X400; format: cell-based
Experimental: as §1

[4] = tested on: Staphylococcus aureus S13E; experiment: MIC, standard agar-dilution assay, S. aureus S13E; format: cell-based
Experimental: as §1

[5] = tested on: Staphylococcus epidermidis EPI1; experiment: MIC, standard agar-dilution assay, S. epidermidis EPI1; format: cell-based
Experimental: as §1

[6] = tested on: Staphylococcus epidermidis 222; experiment: MIC, standard agar-dilution assay, S. epidermidis 222; format: cell-based
Experimental: as §1

[7] = tested on: Streptococcus pyogenes C203; experiment: MIC, standard agar-dilution assay, S. pyogenes C203; format: cell-based; conditions: Streptococcus pyogenes, C203
Experimental: as §1

[8] = tested on: Streptococcus pneumoniae Park I; experiment: MIC, standard agar-dilution assay, S. pneumoniae Park I; format: cell-based; conditions: Streptococcus pneumoniae
Experimental: as §1

[9] = tested on: Streptococcus Group D X66; experiment: MIC, standard agar-dilution assay, Streptococcus Group D X66; format: cell-based
Experimental: as §1

[10] = tested on: Streptococcus Group D 2041; experiment: MIC, standard agar-dilution assay, Streptococcus Group D 2041; format: cell-based; conditions: GROUPD2041
Experimental: as §1

[11] = tested on: Haemophilus influenzae C.L.; experiment: MIC, standard agar-dilution assay, H. influenzae C.L.; format: cell-based
Experimental: as §1

[12] = tested on: Haemophilus influenzae 76; experiment: MIC, standard agar-dilution assay, H. influenzae 76; format: cell-based
Experimental: as §1

Escherichia coli EC14 = experiment: MIC, standard agar-dilution assay, E. coli EC14; format: cell-based; conditions: agar-dilution, read-out: MIC
Experimental: as §1

[13] = tested on: Klebsiella pneumoniae X68; experiment: MIC, standard agar-dilution assay, K. pneumoniae X68; format: cell-based; conditions: agar-dilution, read-out: MIC
Experimental: as §1

[14] = tested on: Pseudomonas aeruginosa X239; experiment: MIC, standard agar-dilution assay, P. aeruginosa X239; format: cell-based; conditions: agar-dilution, read-out: MIC
Experimental: as §1

[15] = tested on: Streptococcus pyogenes C203; experiment: Protection of mice experimentally infected with Streptococcus pyogenes C203; format: in vivo; conditions: Streptococcus pyogenes, doses given 1 and 4 hours postinfection, read-out: ED50
Experimental: The formula 1 compounds have shown in vivo antimicrobial activity against experimentally-induced infections in laboratory animals. When two doses of test compound were administered to mice experimentally infected with Streptococcus pyogenes C203, the activity observed was measured as an ED50 value [effective dose in mg/kg to protect 50% of the test animals: see Warren Wick, et al., J. Bacteriol. 81, 233-235 (1961)].
^a mg/kg × 2; doses given 1 and 4 hours postinfection

[16] = agar-dilution, ampicillin-sensitive strain, read-out: MIC
[17] = agar-dilution, ampicillin-resistant strain, read-out: MIC

Molecule `CCC1OC(=O)CC(O)C(C)C(OC2OC(C)C(O)C(N(C)C)C2O)C(CCOc2ccccc2)CC(C)C(=O)C=CC(C)=CC1COC1OC(C)C(OCCOC)C(OC)C1OC` (centres unmarked) [Compound 44, 20-DH-4"-(2-Methoxyethoxy)-20-O-phenyl-desmycosin] has an MIC [1] of 2 µg/mL (≈ 2.2 µM), an MIC [2] of 2 µg/mL (≈ 2.2 µM) and an MIC [3] of 2 µg/mL (≈ 2.2 µM). The MIC [4] was 2 µg/mL (≈ 2.2 µM), the MIC [5] was 2 µg/mL (≈ 2.2 µM) and the MIC [6] was 2 µg/mL (≈ 2.2 µM). It also gave an MIC [7] of 4 µg/mL (≈ 4.4 µM), an MIC [8] of 4 µg/mL (≈ 4.4 µM) and an MIC [9] of 8 µg/mL (≈ 8.81 µM). The MIC [10] was 32 µg/mL (≈ 35.2 µM), the MIC [11, 16] was over 128 µg/mL and the MIC [12, 17] was over 128 µg/mL. It also gave an MIC (Escherichia coli EC14) of over 128 µg/mL, an MIC [13] of over 128 µg/mL and an MIC [14] of over 128 µg/mL.

`CCC1OC(=O)CC(O)C(C)C(OC2OC(C)C(O)C(N(C)C)C2O)C(CCOc2ccccc2)CC(C)C(=O)C=CC(C)=CC1COC1OC(C)C(NCc2ccccc2)C(OC)C1OC` (centres unmarked) [Compound 47, 4"-Benzylamino-4"-deoxy-20-DH-20-O-phenyl-desmycosin] gave an MIC [1] of 2 µg/mL (≈ 2.13 µM), an MIC [2] of 2 µg/mL (≈ 2.13 µM) and an MIC [3] of 2 µg/mL (≈ 2.13 µM). It also gave an MIC [4] of 2 µg/mL (≈ 2.13 µM), an MIC [5] of 2 µg/mL (≈ 2.13 µM) and an MIC [6] of 2 µg/mL (≈ 2.13 µM). For the same molecule, the MIC [7] was 2 µg/mL (≈ 2.13 µM), the MIC [8] was 2 µg/mL (≈ 2.13 µM) and the MIC [9] was 8 µg/mL (≈ 8.52 µM). It also gave an MIC [10] of 32 µg/mL (≈ 34.1 µM), an MIC [11, 16] of 128 µg/mL (≈ 136 µM) and an MIC [12, 17] of 128 µg/mL (≈ 136 µM). For the same molecule, the MIC (Escherichia coli EC14) was over 128 µg/mL, the MIC [13] was over 128 µg/mL and the MIC [14] was over 128 µg/mL. For the same molecule, the ED50 ([15]; C203, oral) was 70.7 mg/kg and the ED50 ([15]; C203, sc, subcutaneous) was over 10 mg/kg.

`CCCN(CCC)C1C(C)OC(OCC2C=C(C)C=CC(=O)C(C)CC(CCOc3ccccc3)C(OC3OC(C)C(O)C(N(C)C)C3O)C(C)C(O)CC(=O)OC2CC)C(OC)C1OC` (centres unmarked) [Compound 48, 4"-Deoxy-20-DH-20-O-phenyl-4"-[di-(n-propyl)amino]desmycosin] was tested, and the MIC [1] was 16 µg/mL (≈ 17.1 µM), the MIC [2] was 16 µg/mL (≈ 17.1 µM) and the MIC [3] was 16 µg/mL (≈ 17.1 µM). The MIC [4] was 16 µg/mL (≈ 17.1 µM), the MIC [5] was 16 µg/mL (≈ 17.1 µM) and the MIC [6] was 16 µg/mL (≈ 17.1 µM). For the same molecule, the MIC [7] was 8 µg/mL (≈ 8.57 µM), the MIC [8] was 4 µg/mL (≈ 4.29 µM) and the MIC [9] was 16 µg/mL (≈ 17.1 µM). The MIC [10] was 16 µg/mL (≈ 17.1 µM), the MIC [11, 16] was over 128 µg/mL and the MIC [12, 17] was over 128 µg/mL. For the same molecule, the MIC (Escherichia coli EC14) was over 128 µg/mL, the MIC [13] was over 128 µg/mL and the MIC [14] was over 128 µg/mL.

`CCC1OC(=O)CC(O)C(C)C(OC2OC(C)C(O)C(N(C)C)C2O)C(CCOc2ccccc2)CC(C)C(=O)C=CC(C)=CC1COC1OC(C)C(OC)C(O)C1OC` (centres unmarked) [Compound 50, 4"-O-Methyl-20-DH-20-O-phenyl-lactenocin] was tested, and the MIC [1] was 0.5 µg/mL (≈ 0.588 µM), the MIC [2] was 0.5 µg/mL (≈ 0.588 µM) and the MIC [3] was 0.5 µg/mL (≈ 0.588 µM). It also gave an MIC [4] of 0.5 µg/mL (≈ 0.588 µM), an MIC [5] of 0.5 µg/mL (≈ 0.588 µM) and an MIC [6] of 0.25 µg/mL (≈ 0.294 µM). The MIC [7] was 4 µg/mL (≈ 4.71 µM), the MIC [8] was 8 µg/mL (≈ 9.41 µM) and the MIC [9] was 16 µg/mL (≈ 18.8 µM). It also gave an MIC [10] of 32 µg/mL (≈ 37.6 µM), an MIC [11, 16] of 128 µg/mL (≈ 151 µM) and an MIC (Escherichia coli EC14) of over 128 µg/mL. It also gave an MIC [13] of over 128 µg/mL, an MIC [14] of over 128 µg/mL and an ED50 ([15]; C203, oral) of 75.3 mg/kg. The ED50 ([15]; C203, sc, subcutaneous) was over 10 mg/kg.

In the case of `CCC1OC(=O)CC(O)C(C)C(OC2OC(C)C(O)C(N(C)C)C2O)C(CCOc2ccccc2)CC(C)C(=O)C=CC(C)=CC1COC1OC(C)CC(=O)C1OC` (centres unmarked) [Compound 52, 4"-Deoxy-3"-oxo-20-DH-20-O-phenyl-lactenocin], the MIC [1] is reported as 0.5 µg/mL (≈ 0.611 µM), the MIC [2] is reported as 0.5 µg/mL (≈ 0.611 µM) and the MIC [3] is reported as 0.5 µg/mL (≈ 0.611 µM). For the same molecule, the MIC [4] was 0.5 µg/mL (≈ 0.611 µM), the MIC [5] was 0.5 µg/mL (≈ 0.611 µM) and the MIC [6] was 0.25 µg/mL (≈ 0.306 µM). It also gave an MIC [7] of 1 µg/mL (≈ 1.22 µM), an MIC [8] of 2 µg/mL (≈ 2.44 µM) and an MIC [9] of 2 µg/mL (≈ 2.44 µM). It also gave an MIC [10] of 2 µg/mL (≈ 2.44 µM), an MIC [11] of 64 µg/mL (≈ 78.2 µM) and an MIC [12] of 64 µg/mL (≈ 78.2 µM). For the same molecule, the MIC (Escherichia coli EC14) was over 128 µg/mL, the MIC [13] was over 128 µg/mL and the MIC [14] was over 128 µg/mL. The ED50 ([15]; C203, oral) was 79.4 mg/kg and the ED50 ([15]; C203, sc, subcutaneous) was 10 mg/kg.

In the case of `CCC1OC(=O)CC(O)C(C)C(OC2OC(C)C(O)C(N(C)C)C2O)C(CCOc2ccccc2)CC(C)C(=O)C=CC(C)=CC1COC1OC(C)C=C(OC)C1OC` (centres unmarked) [Compound 54, 3",4"-Anhydro-20-DH-20-O-phenyl-desmycosin], the MIC [1] is reported as 1 µg/mL (≈ 1.2 µM), the MIC [2] is reported as 1 µg/mL (≈ 1.2 µM) and the MIC [3] is reported as 0.5 µg/mL (≈ 0.601 µM). It also gave an MIC [4] of 1 µg/mL (≈ 1.2 µM), an MIC [5] of 1 µg/mL (≈ 1.2 µM) and an MIC [6] of 0.25 µg/mL (≈ 0.3 µM). The MIC [7] was 4 µg/mL (≈ 4.81 µM), the MIC [8] was 4 µg/mL (≈ 4.81 µM) and the MIC [9] was 8 µg/mL (≈ 9.61 µM). The MIC [10] was 8 µg/mL (≈ 9.61 µM), the MIC [11, 16] was 128 µg/mL (≈ 154 µM) and the MIC [12, 17] was 128 µg/mL (≈ 154 µM). The MIC (Escherichia coli EC14) was over 128 µg/mL, the MIC [13] was over 128 µg/mL and the MIC [14] was over 128 µg/mL.
